From article PMC7139830, “Drug Conjugation Induced Modulation of Structural and Membrane Interaction Features of Cationic Cell-Permeable Peptides” (International Journal of Molecular Sciences, 2020)
Read-outs that look alike come from different tables or passages of the source.

Assays:
[1] = Analytical RP-HPLC retention time on C-18 column as indicator of polarity; assay type: physicochemical; details: chromatographic, YMC-Pack ODS-A C18 (5 µm, 120 Å) 150 × 4.6 mm; gradient 5% B 2 min, 5%–100% B 20 min; A 0.1% TFA in water, B 0.1% TFA in acetonitrile/water 80/20; 1 mL/min; UV 220 nm
Excerpt: Cationic membrane active peptides and their INH-derivatives were synthesized in good yields, using previously described methods. Peptides were characterized with their monoisotopic molecular mass (M), retention time on a C-18 RP-HPLC column (Rt), estimated hydrophilicity values (H) and net charge (z) (see Table 1). Peptides are listed according to their retention times, which are the indicator of their polarity. […] This order of peptides’ polarity is almost equal to the relative hydrophilicity estimated from the amino acid composition. […] That might be the result of decreased charge due to INH coupling at the N-terminal, although the addition of INH molecule is expected to increase the polarity of the conjugate.
Purified peptides were analyzed by RP-HPLC, on an analytical C-18 column, using gradient elution with the abovementioned eluent A and B (flow rate was 1 mL/min, UV detection at λ = 220 nm). Molecular mass of the peptides was determined on a Thermo Scientific Q Exactive™ Focus Hybrid Quadrupole-Orbitrap™ Mass Spectrometer (ThermoFisher Scientific, Waltham, MA, USA).

[2] = AFM imaging of penetrated DPPC+mycolic acid lipid layer; assay type: physicochemical; details: DPPC+mycolic acid film, AFM cross-section profiles
[3] = AFM imaging of penetrated DPPC lipid layer; assay type: physicochemical; details: DPPC monolayer, AFM cross-section profiles
Excerpt: At the end of the membrane affinity measurements, the penetrated monolayers were transferred to a previously cleaned cover glass, to study the structural changes of the membranes by atomic force microscopy (Figure 5 and Figure 6). The surface of the original DPPC and mixed DPPC+mycolic acid monolayer is rather smooth, with a morphology described by typical roughness values presented in Table 2. (Ra is the average deviation of all points from a mean level over the evaluation area. Rq (RMS) is the root mean square roughness, while Rz is the average absolute value of the five highest peaks and the five lowest valleys over the evaluation area, being sensitive to positive or negative extremes of the image.) Well-defined homogenous lipid islands are formed by the ordered lipid molecules in equilibrium with the less-oriented film with smaller surface density as expected from the surface pressure–area isotherm. Comparing to this, the morphology of the penetrated monolayers was changed. The 3D images provide a visual impression on the surface, while the cross-section profiles allow the measurement of the height differences. […] This morphological change can also be expressed by the roughness factors determined by analyzing the AFM images (Table 2).
Penetrated Langmuir monolayers were transferred to a previously cleaned hydrophilic cover glass for atomic microscopy measurements. […]

[4] = test system: Mycobacterium tuberculosis H37Rv in infected MonoMac-6 human monocytes; assay type: cell-based
[5] = test system: EBC-1 cells; assay type: cell-based, human

Row | Substance | Rt, retention time on C-18 RP-HPLC column (indicator of polarity) [1] | also measured
1 | CM15 | 13.7 | –
2 | GIGKFLHSAKKFGKAFVGEIMNS [Magainin II, antimicrobial peptide isolated from amphibians] | 12.8 | –
3 | INH-GIGKFLHSAKKFGKAFVGEIMNS [INH–Magainin II, isoniazid conjugated to the N-terminus of Magainin II via glyoxylic acid linker] | 13.3 | –
4 | INH-KRLFKKLLFSLRKY [INH–Dhvar4, isoniazid conjugated to the N-terminus of Dhvar4 via glyoxylic acid linker] | 12.8 | –
5 | INH-RAGLQFPVGRVHRLLRK [INH–Buforin II (5–21), isoniazid conjugated to the N-terminus of Buforin II (5–21) via glyoxylic acid linker] | 11.0 | –
6 | INH-RQIKIWFQNRRMKWKK [INH–Penetratin, isoniazid conjugated to the N-terminus of Penetratin via glyoxylic acid linker] | 11.5 | Height of aggregates / vertical deviation in penetrated layer [2]: exceeding 3 nm; Height of aggregates / protrusions in penetrated layer [3]: 1–3 nm; Intracellular antitubercular activity [4]: efficient candidate against intracellular Mycobacterium tuberculosis
7 | INH-TKPKGTKPKGTKPKGTKPKG [INH–OT20, isoniazid conjugated to the N-terminus of OT20 via glyoxylic acid linker] | 7.0 | –
8 | KRLFKKLLFSLRKY [Dhvar4, synthetic derivative of Histatin, a salivary histidine-rich cationic AMP] | 11.8 | –
9 | RAGLQFPVGRVHRLLRK [Buforin II (5–21), antimicrobial peptide isolated from amphibians] | 10.9 | –
10 | RQIKIWFQNRRMKWKK [Penetratin, cell-penetrating peptide] | 10.9 | Subcellular localization ([5]; Cf-labeled peptides, 60 min incubation, EBC-1 cells, confocal microscopy): diffused intracellular distribution
11 | TKPKGTKPKGTKPKGTKPKG [OT20, synthetic oligomer of Tuftsin, cationic carrier peptide] | 6.7 | –
12 | Transportan | – | Subcellular localization [5]: mostly vesicular localization
